Laboratory results taken from patent US20240279159A1, “HERBICIDAL ARYLCYCLOPENTENE CARBOXAMIDES” (BASF SE, priority 2021, published 2024).

Tests used:
ECHCG [1] = experiment: greenhouse herbicidal test, post-emergence treatment; assay type: in vivo, Echinocloa crus-galli; conditions: post-emergence method, application rate 0.250 kg/ha; scale from 0 to 100
From the text: (§1) The culture containers used were plastic flowerpots containing loamy sand with approximately 3.0% of humus as the substrate. The seeds of the test plants were sown separately for each species.
(§2) For the pre-emergence treatment, the active ingredients, which had been suspended or emulsified in water, were applied directly after sowing by means of finely distributing nozzles. The containers were irrigated gently to promote germination and growth and subsequently covered with transparent plastic hoods until the test plants had rooted. This cover caused uniform germination of the test plants, unless this had been impaired by the active ingredients. For the post-emergence treatment, the test plants were first grown to a height of 3 to 15 cm, depending on the plant habit, and only then treated with the active ingredients which had been suspended or emulsified in water. For this purpose, the test plants were either sown directly and grown in the same containers, or they were first grown separately as seedlings and transplanted into the test containers a few days prior to treatment.
(§3) Depending on the species, the test plants were kept at 10-25° C. or 20-35° C., respectively. The test period extended over 2 to 4 weeks. During this time, the test plants were tended, and their response to the individual treatments was evaluated.
(§4) Evaluation was carried out using a scale from 0 to 100. […]

SETFA = experiment: greenhouse herbicidal test, pre-emergence treatment; assay type: in vivo, Setaria faberi; conditions: pre-emergence method, application rate 1,000 kg/ha; scale from 0 to 100
From the text: as §1, §2, §3, §4

ALOMY = experiment: greenhouse herbicidal test, post-emergence treatment; assay type: in vivo, Alopercurus myosuroides; conditions: post-emergence method, scale from 0 to 100
From the text: as §1, §2, §3
Evaluation was carried out using a scale from 0 to 100. 100 means no emergence of the test plants, or complete destruction of at least the aerial moieties, and 0 means no damage, or normal course of growth. A good herbicidal activity is given at values of 60 to 90 and a very good herbicidal activity is given at values of 90 to 100.
The test plants used in the greenhouse experiments were of the following species: […]

ECHCG [2] = experiment: greenhouse herbicidal test, pre-emergence treatment; assay type: in vivo, Echinocloa crus-galli; conditions: pre-emergence method, application rate 1,000 kg/ha; scale from 0 to 100
From the text: as §1, §2, §3, §4

AMARE [3] = experiment: as above; assay type: in vivo, Amaranthus retroflexus; conditions: pre-emergence method, application rate 0.250 kg/ha; scale from 0 to 100
From the text: as §1, §2, §3, §4

AMARE [4] = experiment: greenhouse herbicidal test, post-emergence treatment; assay type: in vivo, Amaranthus retroflexus; conditions: post-emergence method, scale from 0 to 100
From the text: as §1, §2, §3, §4

ABUTH = experiment: as above; assay type: in vivo, Abutilon theophrasti; conditions: post-emergence method, application rate 0.250 kg/ha; scale from 0 to 100
From the text: as §1, §2, §3, §4

In the case of `COC(=O)[C@@H]1C=C[C@H](NC(=O)C2(C)CC=C(c3cc(F)cc(F)c3)C2=O)C1` (stereo partly drawn) [I111, methyl (1S,4R)-4-[[3-(3,5-difluorophenyl)-1-methyl-2-oxo-cyclopent-3-ene-1-carbonyl]amino]cyclopent-2-ene-1-carboxylate], the “herbicidal activity against ECHCG” value (ECHCG [1]) is reported as “good (A good herbicidal activity is given at values of 60 to 90)”.
In the case of `COC(=O)C[C@H](C)NC(=O)C1(C)CC(c2cc(F)cc(F)c2)=CO1` (single isomer, unassigned) [I2], the “herbicidal activity against SETFA” value (SETFA) is reported as “good (A good herbicidal activity is given at values of 60 to 90)”, the “herbicidal activity against ALOMY” value (ALOMY; application rate 1.000 kg/ha) is reported as “good (A good herbicidal activity is given at values of 60 to 90)” and the “herbicidal activity against ECHCG” value (ECHCG [2]) is reported as “good (A good herbicidal activity is given at values of 60 to 90)”.
In the case of `COC(=O)[C@@H]1C=C[C@H](NC(=O)C2(C)CC(c3cc(Cl)cc(Cl)c3)=CO2)C1` (relative stereo) [I6], the “herbicidal activity against ALOMY” value (ALOMY; application rate 0.250 kg/ha) is reported as “very good (a very good herbicidal activity is given at values of 90 to 100)”.
In the case of `COC(=O)[C@@H]1C=C[C@H](NC(=O)C2(C(F)(F)F)CC(c3cc(F)cc(F)c3)=CO2)C1` (relative stereo) [I8], the “herbicidal activity against AMARE” value (AMARE [3]) is reported as “good (A good herbicidal activity is given at values of 60 to 90)”.
`COC(=O)C1CCC(NC(=O)C2(C)CC(c3cc(Cl)cc(Cl)c3)=CO2)C1` (stereo not shown) [I14] was tested, and the “herbicidal activity against AMARE” value (AMARE [4]; application rate 0.250 kg/ha) was “good (A good herbicidal activity is given at values of 60 to 90)” and the “herbicidal activity against ABUTH” value (ABUTH) was “good (A good herbicidal activity is given at values of 60 to 90)”.
For `COC(=O)C[C@H](C)NC(=O)C1(C)CC(c2cc(F)cc(F)c2)=CO1` (single isomer, unassigned) [I1], the “herbicidal activity against ALOMY” value (ALOMY; application rate 1.000 kg/ha) was “very good (a very good herbicidal activity is given at values of 90 to 100)”.
For `COC(=O)C[C@H](C)NC(=O)C1(C)CC(c2cc(Cl)cc(Cl)c2)=CO1` (single isomer, unassigned) [I3], the “herbicidal activity against AMARE” value (AMARE [4]; application rate 1.000 kg/ha) was “very good (a very good herbicidal activity is given at values of 90 to 100)”.
